# Earlier results in US10533225B2, “Methods and systems for monitoring, diagnosing, and treating chronic obstructive pulmonary disease” (Trustees of Boston University, priority 2012, dated 2020).
# Legend:
# [1] = test system: ER stress markers and airspace; details: mice, administration
# PI3K pathway activation = details: smokers with airway epithelial cell dysplasia
Compound,ER stress markers [1],airspace change [1],airway PI3K pathway activation (PI3K pathway activation)
C=CC=O [acrolein],increase in ER stress markers,airspace enlargement,–
O[C@H]1[C@H](O)[C@@H](O)[C@H](O)[C@@H](O)[C@H]1O [myo-inositol],–,–,reversible
